From US9850203B2, “Autotaxin inhibitor compounds” (PharmAkea, Inc., priority 2013, dated 2017)

target: human autotaxin (ATX) (Homo sapiens (Human), UniProt Q13822); experiment: Human Autotaxin Assay; type: biochemical; conditions: concentrated conditioned media from Hep3B cells; LPC substrate, choline release
Description: ATX activity is assayed in concentrated conditioned media from Hep3B human hepatocellular carcinoma cells by measuring the amount of choline released from the substrate, lysophosphatidylcholine (LPC) as it is cleaved to LPA. Conditioned media is collected from confluent Hep3B cells and concentrated 20-fold using Centriprep-30 filter devices (Millipore). To assay for autotaxin inhibition, 10-20 μL of the concentrated conditioned media is incubated with 2.5 μL of a test compound in DMSO and 72.5-82.5 μL lyso-PLD buffer (100 mM Tris pH 9, 500 mM NaCl, 5 mM MgCl2, 5 mM CaCl2, 0.05% Triton X-100 in the presence or absence of 0.2% fatty-acid-free human serum albumin) for 15 min at 37° C. After the 15 min incubation, 5 uL of 2 mM LPC (14:0; Avanti Polar Lipids Cat#855575C) diluted in lyso-PLD buffer is added for a final concentration of 100 uM and the incubation continues for 1.5-3 hours at 37° C.

Structure (SMILES)	IC50
Cc1c(Sc2cccc(C(=O)O)c2)c2ccc(Cl)c(F)c2n1CC(=O)N1CCC(Cc2ccc(F)cc2)C1 (single isomer, unassigned; enantiomer a) [Compound 1-65, 3-((6-Chloro-7-fluoro-1-(2-(3-(4-fluorobenzyl)pyrrolidin-1-yl)-2-oxoethyl)-2-methyl-1H-indol-3-yl)thio)benzoic acid Enantiomer A]	≤ 500 nM
Cc1c(Sc2cccc(C(=O)O)c2)c2ccc(Cl)c(F)c2n1CC(=O)N1CC(O)(C2CC2)C1 [Compound 1-82, 3-((6-Chloro-1-(2-(3-cyclopropyl-3-hydroxyazetidin-1-yl)-2-oxoethyl)-7-fluoro-2-methyl-1H-indol-3-yl)thio)benzoic acid]	≤ 500 nM
Cc1c(Sc2cccc(C(=O)O)c2)c2ccc(Cl)c(F)c2n1CC(=O)N1CC(O)(C(F)(F)F)C1 [Compound 1-84, 3-((6-Chloro-7-fluoro-1-(2-(3-hydroxy-3-(trifluoromethyl)azetidin-1-yl)-2-oxoethyl)-2-methyl-1H-indol-3-yl)thio)benzoic acid]	≤ 500 nM
Cc1c(Sc2cccc(C(=O)O)c2)c2ccc(Cl)c(F)c2n1CC(=O)N1CC2C(C1)C2C(N)=O [Compound 1-51, 3-((1-(2-((1R,5S,6R)-6-Carbamoyl-3-azabicyclo[3.1.0]hexan-3-yl)-2-oxoethyl)-6-chloro-7-fluoro-2-methyl-1H-indol-3-yl)thio)benzoic acid]	≤ 500 nM
Cc1c(Sc2cccc(C(=O)O)c2)c2ccc(Cl)c(F)c2n1CC(=O)N1CCC(Cc2ccc(F)cc2)CC1 [Compound 1-60, 3-((6-Chloro-7-fluoro-1-(2-(4-(4-fluorobenzyl)piperidin-1-yl)-2-oxoethyl)-2-methyl-1H-indol-3-yl)thio)benzoic acid]	500 to 3000 nM
COc1ccc2c(c1)CCN2C(=O)Cn1c(C)c(Sc2cccc(C(=O)O)c2)c2ccc(Cl)c(F)c21 [Compound 1-58, 3-((6-Chloro-1-(2-(5-methoxyindolin-1-yl)-2-oxoethyl)-7-fluoro-2-methyl-1H-indol-3-yl)thio)benzoic acid]	≤ 500 nM
Cc1c(Sc2cccc(C(=O)O)c2)c2ccc(Cl)c(F)c2n1CC(=O)N1CCC2(CC2)C1 [Compound 1-95, 3-((6-Chloro-7-fluoro-2-methyl-1-(2-oxo-2-(5-azaspiro[2.4]heptan-5-yl)ethyl)-1H-indol-3-yl)thio)benzoic acid]	≤ 500 nM
Cc1c(Sc2cccc(C(=O)O)c2)c2ccc(Cl)c(F)c2n1CC(=O)N1CC2CCCCC2C1 (centres unmarked) [Compound 1-98, 3-((6-Chloro-7-fluoro-1-(2-(hexahydro-1H-isoindol-2(3H)-yl)-2-oxoethyl)-2-methyl-1H-indol-3-yl)thio)benzoic acid]	≤ 500 nM
Cc1c(Sc2cccc(C(=O)O)c2)c2ccc(Cl)c(F)c2n1CC(=O)N1CCC2(CC1)CC2C(=O)N1CCCC1 (centres unmarked) [Compound 1-40, 3-((6-Chloro-7-fluoro-2-methyl-1-(2-oxo-2-(1-(pyrrolidine-1-carbonyl)-6-azaspiro[2.5]octan-6-yl)ethyl)-1H-indol-3-yl)thio)benzoic acid]	500 to 3000 nM
Cc1c(Sc2cccc(C(=O)O)c2)c2ccc(Cl)c(F)c2n1CC(=O)N1CCC2(CCNC(=O)CC2)CC1 [Compound 1-53, 3-((6-Chloro-7-fluoro-2-methyl-1-(2-oxo-2-(10-oxo-3,9-diazaspiro[5.6]dodecan-3-yl)ethyl)-1H-indol-3-yl)thio)benzoic acid]	≤ 500 nM
Cc1c(Sc2cccc(C(=O)O)c2)c2ccc(Cl)c(F)c2n1CC(=O)N(C)C [Compound 1-7, 3-((6-Chloro-1-(2-(dimethylamino)-2-oxoethyl)-7-fluoro-2-methyl-1H-indol-3-yl)thio)benzoic acid]	≤ 500 nM
Cc1c(Sc2cccc(C(=O)O)c2)c2ccc(Cl)c(F)c2n1CC(=O)N1CCC(CCc2ccccc2)C1 (centres unmarked) [Compound 1-76, 3-((6-Chloro-7-fluoro-2-methyl-1-(2-oxo-2-(3-phenethylpyrrolidin-1-yl)ethyl)-1H-indol-3-yl)thio)benzoic acid]	500 to 3000 nM
Cc1c(Sc2cccc(C(=O)O)c2)c2ccc(Cl)c(F)c2n1CC(=O)N1CCc2c(F)cc(F)cc21 [Compound 1-70, 3-((6-Chloro-1-(2-(4,6-difluoroindolin-1-yl)-2-oxoethyl)-7-fluoro-2-methyl-1H-indol-3-yl)thio)benzoic acid]	≤ 500 nM
Cc1c(Sc2cccc(C(=O)O)c2)c2ccc(Cl)c(F)c2n1CC(=O)N1CCc2ccccc21 [Compound 1-14, 3-((6-Chloro-7-fluoro-1-(2-(indolin-1-yl)-2-oxoethyl)-2-methyl-1H-indol-3-yl)thio)benzoic acid]	≤ 500 nM
Cc1c(Sc2cccc(C(=O)O)c2)c2ccc(Cl)c(F)c2n1CC(=O)N1CCC(c2ccc(F)cc2)C1 (single isomer, unassigned; enantiomer b) [Compound 1-75, 3-((6-Chloro-7-fluoro-1-(2-(3-(4-fluorophenyl)pyrrolidin-1-yl)-2-oxoethyl)-2-methyl-1H-indol-3-yl)thio)benzoic acid Enantiomer B]	≤ 500 nM
Cc1c(Sc2cccc(C(=O)O)c2)c2ccc(Cl)c(F)c2n1CC(=O)N1CC(N2CCS(=O)(=O)CC2)C1 [Compound 1-48, 3-((6-Chloro-1-(2-(3-(1,1-dioxidothiomorpholino)azetidin-1-yl)-2-oxoethyl)-7-fluoro-2-methyl-1H-indol-3-yl)thio)benzoic acid]	≤ 500 nM
Cc1c(Sc2cccc(C(=O)O)c2)c2ccc(Cl)c(F)c2n1CC(=O)N1CCCC2(CNC(=O)C2)C1 (centres unmarked) [Compound 1-35, 3-((6-Chloro-7-fluoro-2-methyl-1-(2-oxo-2-(3-oxo-2,7-diazaspiro[4.5]decan-7-yl)ethyl)-1H-indol-3-yl)thio)benzoic acid]	≤ 500 nM
Cc1c(Sc2cccc(C(=O)O)c2)c2ccc(Cl)c(F)c2n1CC(=O)Nc1ccccc1 [Compound 1-3, 3-((6-Chloro-7-fluoro-2-methyl-1-(2-oxo-2-(phenylamino)ethyl)-1H-indol-3-yl)thio)benzoic acid]	500 to 3000 nM

Continued, values first:

IC50	Structure (SMILES)
≤ 500 nM	O=C(O)c1cccc(Sc2c(Cl)n(CCN3CC4(CC4)c4ccccc43)c3c(F)c(Cl)ccc23)c1F [Compound 5-2, Sodium 3-((2,6-dichloro-7-fluoro-1-(2-(spiro[cyclopropane-1,3′-indolin]-1′-yl)ethyl)-1H-indol-3-yl)thio)-2-fluorobenzoate]
≤ 500 nM	Cc1c(Sc2cccc(C(=O)O)c2F)c2ccc(Cl)c(F)c2n1CC(=O)N1CC(CN(C)C)C1 [Compound 2-71, 3-((6-Chloro-1-(2-(3-((dimethylamino)methyl)azetidin-1-yl)-2-oxoethyl)-7-fluoro-2-methyl-1H-indol-3-yl)thio)-2-fluorobenzoic acid]
≤ 500 nM	Cc1c(Sc2cccc(C(=O)O)c2F)c2ccc(Cl)c(F)c2n1CC(=O)N1CCC2(C1)OCCO2 [Compound 2-72, 3-((6-Chloro-7-fluoro-2-methyl-1-(2-oxo-2-(1,4-dioxa-7-azaspiro[4.4]nonan-7-yl)ethyl)-1H-indol-3-yl)thio)-2-fluorobenzoic acid]
≤ 500 nM	Cc1c(Sc2cccc(C(=O)O)c2F)c2ccc(Cl)c(F)c2n1CC(=O)N1CC2(CC2)c2cc(F)ccc21 [Compound 3-23, 3-[6-Chloro-7-fluoro-1-[2-(5′-fluorospiro[cyclopropane-1,3′-indoline]-1′-yl)-2-oxo-ethyl]-2-methyl-indol-3-yl]sulfanyl-2-fluoro-benzoic acid]
≤ 500 nM	Cc1c(Sc2cccc(C(=O)O)n2)c2ccc(Cl)c(F)c2n1CC(=O)N1CC2(CC2)c2ccccc21 [Compound 2-54, 6-((6-Chloro-7-fluoro-2-methyl-1-(2-oxo-2-(spiro[cyclopropane-1,3′-indolin]-1′-yl)ethyl)-1H-indol-3-yl)thio)picolinic acid]
≤ 500 nM	Cc1c(Sc2cccc(C(=O)O)c2F)c2ccc(Cl)c(F)c2n1CC(=O)N1CC(C#N)C1 [Compound 2-67, 3-((6-Chloro-1-(2-(3-cyanoazetidin-1-yl)-2-oxoethyl)-7-fluoro-2-methyl-1H-indol-3-yl)thio)-2-fluorobenzoic acid]
≤ 500 nM	Cc1c(Sc2cccc(C(=O)O)n2)c2ccc(Cl)c(F)c2n1CC(=O)N1CCc2ccccc21 [Compound 2-3]
≤ 500 nM	O=C(O)c1cccc(Sc2c(C3CC3)n(CC(=O)N3CCc4ccccc43)c3c(F)c(Cl)ccc23)c1F [Compound 4-29, Sodium 3-((6-chloro-2-cyclopropyl-7-fluoro-1-(2-(indolin-1-yl)-2-oxoethyl)-1H-indol-3-yl)thio)-2-fluorobenzoate]
500 to 3000 nM	CON(C)C(=O)Cn1c(C2CC2)c(Sc2cccc(C(=O)O)c2F)c2ccc(Cl)c(F)c21 [Compound 5-7, Sodium 3-((6-chloro-2-cyclopropyl-7-fluoro-1-(2-(methoxy(methyl)amino)-2-oxoethyl)-1H-indol-3-yl)thio)-2-fluorobenzoate]
≤ 500 nM	Cc1c(Sc2cccc(C(=O)O)c2F)c2ccc(Cl)c(F)c2n1CCN1CCc2ccccc21 [Compound 2-73, Sodium 3-((6-chloro-7-fluoro-1-(2-(indolin-1-yl)ethyl)-2-methyl-1H-indol-3-yl)thio)-2-fluorobenzoate]
≤ 500 nM	O=C(O)c1cccc(Sc2c(Cl)n(CC(=O)N3CC4(CCC4)c4ccccc43)c3c(F)c(Cl)ccc23)c1F [Compound 4-121, Sodium 3-((2,6-dichloro-7-fluoro-1-(2-oxo-2-(spiro[cyclobutane-1,3′-indolin]-1′-yl)ethyl)-1H-indol-3-yl)thio)-2-fluorobenzoate]
